Source: PubChem BioAssay AID1508591

Details: rat; liver microsomes; pH 7.4; 15.0 min; 1.0 µM

SMILES | half-life [min]
Cc1ccc(S(=O)(=O)Nc2cnccc2C(=O)Nc2nc(-c3ccccc3F)cs2)cc1 | 9.9
CC(=O)c1c(C)c(C(=O)Nc2cccc([S+](=O)([O-])N(C)C)c2)n(C)c1C | 15
CCOc1ccc(CCNC(=O)c2cc3sccc3n2Cc2cccc(C)c2)cc1OCC | 1.8
O=[S+]([O-])(Nc1nccs1)c1ccc(NCc2cccc3c2NCC3)cc1 | > 30
CN1CCN(C(=O)Cc2c[nH]c3ncc(-c4ccccc4Oc4ccccc4)cc23)CC1 | 1.72
FC(F)(F)c1ccccc1-c1nc(NCc2ccc(-c3cccnc3)cc2)c2ccccc2n1 | 9.18
O=S(=O)(c1ccccc1)N1CCN(c2nc(-c3ccc(Br)cc3)cs2)CC1 | 27.7
COc1ccc(-c2csc(NC(=O)c3ccncc3NS(=O)(=O)c3ccc(C)cc3)n2)cc1 | 4.7
O=C(Nc1ccc(Br)cc1)c1ccc(F)c(S(=O)(=O)NC2CCCCCC2)c1 | 3.66
CC(C)(O)CCc1ccc(OCc2cc(-c3cccc(OC(F)F)c3)c3ncccc3c2)cc1 | > 30
COc1cc2ncnc(Oc3cccc(NC(=O)Nc4cc(C(C)(C)C(F)(F)F)on4)c3)c2cc1OC | > 30
COc1ccc(-c2cc(-c3cccc(NC(C)=O)c3)cn3cncc23)cn1 | 15.7
Cc1ccc(-c2cc(C(=O)Nc3ncco3)c3ccccc3n2)cc1C | 5.7
O=C1NC(=O)C(c2cnc3ccccn23)=C1c1cn2c3c(cccc13)CN(C(=O)N1CCOCC1)CC2 | > 30
Cc1ccc(S(=O)(=O)Nc2cnccc2C(=O)Nc2nc(-c3ccco3)cs2)cc1 | 1.9
FC(F)(F)c1ccc(CN2CCNc3cc(Nc4ccccc4)ncc3C2)cc1 | 17.3
CN(C)[C@@H]1CCN(c2cccc(Nc3nn4c(=O)c5ccccc5nc4s3)c2)C1 | > 30
Fc1ccc(Nc2nc(-c3ccncc3Cl)nc3ccccc23)cc1F | 19
CCOP(=O)(Cc1ccc(C(=O)Nc2ccc(Br)cc2C#N)cc1)OCC | > 30
CN1C(=O)c2ccccc2[S@](=O)c2ccc(C(=O)NCc3ccc(Br)cc3)cc21 | 13
Cn1nc(-c2ccccc2F)c2cc(C(=O)Nc3cc(F)ccc3F)sc21 | 26.2
O=C1Nc2ccccc2/C1=C\c1cc(F)c(O)c(F)c1 | 23
Cc1sc(NC(=O)Cc2ccc3c(c2)OCO3)nc1-c1ccc2c(c1)CCN2C | 5.5
N#Cc1ccccc1S(=O)(=O)Nc1cnccc1C(=O)Nc1nc(-c2ccccc2)cs1 | 7
Fc1ccc(Nc2nc(Nc3ccncc3)nc3ccccc23)cc1F | > 30

Second part, the compound after the results:

half-life [min] | SMILES
3.17 | COc1cccc(C(=O)Nc2cccc(OCc3cc(=O)n4cccc(C)c4n3)c2)c1
3.09 | NC(=O)C1CCN(c2nc(-c3ccc(Cl)cc3)cs2)CC1
> 30 | COC(=O)CNC(=O)c1nc(-c2ccc([S+](C)(=O)[O-])cc2)c2ccccn12
1.71 | NC(=O)C1CCN(c2nccc(-c3ccc4c(c3)OCCO4)n2)CC1
> 30 | CN(C)C(=O)c1nc(-c2ccc(Cl)nc2)c2ccccn12
> 30 | C[C@@]1(O)[C@H](O)[C@@H](CO)O[C@H]1n1ccc(N)nc1=O
2.06 | C=C[C@]1(C)C[C@@H](OC(=O)CSC(C)(C)CNC(=O)[C@H](N)C(C)C)[C@]2(C)[C@H](C)CC[C@]3(CCC(=O)[C@H]32)[C@@H](C)[C@@H]1O
18.3 | NC(=O)C1CCN(c2nc(-c3ccc(OCc4ccccc4)cc3)cs2)CC1
15 | Cc1ccc(-n2nc(C)c3c(-c4ccc(O)c(O)c4)c(C#N)c(N)nc32)cc1C
1.74 | N#Cc1cccc(-c2csc(N3CCC(C(N)=O)CC3)n2)c1
> 30 | Nc1c(-c2ccccc2)cc[nH]c1=O
> 30 | CN(C)CCN1C(=O)c2cccc3cc(N)cc(c23)C1=O
14 | O=C1CCCC2=C1C(c1[nH]ncc1Cl)N=C(Nc1nc3ccc(F)cc3o1)N2 (stereo not given)
> 30 | COc1ccc(-c2nc(N3CCOCC3)c3sc(CN(C)c4ncc(C(=O)NO)cn4)cc3n2)cn1
9.42 | O=C(Cc1ccc(O)cc1)N1CC(CNc2ccccc2)C2(C1)CN(c1ccccc1)C2 (stereo not given)
